Source: article PMC11189555, “Aryl amino acetamides prevent Plasmodium falciparum ring development via targeting the lipid-transfer protein PfSTART1” (Nature Communications, 2024)

System: PopD-D7 M-833 resistant clone (PfSTART1 N309K)
Experiment: Growth inhibition assay (72 h, LDH activity)
Type: cell-based, Plasmodium falciparum
Settings: for EC50: Plasmodium falciparum, 72 h, read-out: EC50; for EC50 / Fold change compared to 3D7: Supplementary Table 1; for EC50 / resistance of the line compared with 3D7: PopD-D7 (N309K); for resistance of the line compared with 3D7: Fig 4B; for Fold change compared to 3D7: EC50 on PopD-D7 vs 3D7
Procedure: The drug was then removed, and parasites were allowed to recover. Another cycle of drug treatment (3 μM M-833) was then resumed. The resistant lines were cloned out by limiting dilution (diluting the culture into a 96-well plate to achieve an average of ~0.3 parasites per well), prior to growth inhibition assays and genomic DNA (gDNA) extraction (DNeasy Blood and Tissue kit (Qiagen)[18].
Parasite growth assays with inhibitory compounds were performed as per[11] and are fully described in the Supplementary Information. […]
Growth inhibition assays. Synchronised ring-stage parasites (0.3-0.6% parasitemia, 2% haematocrit) were grown for 72 h in a serial-dilution of the compound under […]
and compound 4. Note that M-833 was first purchased from MolPort (MolPort -002-267-916) then made in-house at WEHI: the differences observed in EC50s across experiments are attributed to the different batches of M -833. For some experiments, 0, 0.25 or 2.5 mM of glucosamine (GlcN) was also added. Experiments were set up in technical duplicates or triplicates. Following a freeze -thaw cycle, lactate dehydrogenase (LDH) activity was assessed as an indicator of parasite growt h 5. 30 μL of parasite culture was incubated for 30 min in the dark with 75 μL Malstat mixture (0.1 M Tris pH 9.0, 20 g/L lactic acid, pH 7.5, 0.2% Triton-X100, 0.5 g/L acetylpyridine adenine dinucleotide (APAD, Sigma), 200 μg/mL nitroblue tetrazolium (NBT; Sigma), 1 μg/mL phenozine ethosulfate (PES; Sigma)). Absorbance was then measured at 650 nm, transformed using the formula below, plotted against the logarithm of the concentrations, and a non-linear regression (log(inhibitor) vs. response, variable slope) was calculated using GraphPad Prism to assess the half-inhibitory […]
Growth inhibition % = (1 − average(sample)− average(uRBC)) ∗ 100 […]
The DMSO samples were also used to assess growth of parasite in the presence of 0.25 and 2.5 mM GlcN (normalised by DMSO in 0 mM GlcN). […]

Q: `O=C(CNc1ccc(Cl)c(S(=O)(=O)N2CCOCC2)c1)Nc1ccc(F)c(Cl)c1` [compound 2, reference compound] was tested. Which EC50 did it give?
A: > 20000 nM

Q: What about the “resistance of the line compared with 3D7” value of the same molecule?
A: highly resistant

Q: What about the “(av-uRBC) / (DMSO-uRBC) x100” value (PopD-D7, conc. 3.04832 nM, Biological replicate 1 (2021-10-25)) of the same molecule?
A: 108.297

Q: And the “(av-uRBC) / (DMSO-uRBC) x100” value (PopD-D7, conc. 3.04832 nM, Biological replicate 2 (2021-11-03))?
A: 110.746

Q: What about the “(av-uRBC) / (DMSO-uRBC) x100” value (PopD-D7, conc. 3.04832 nM, Biological replicate 3 (2021-11-11)) of the same molecule?
A: 101.173

Q: What about the “(av-uRBC) / (DMSO-uRBC) x100” value (PopD-D7, conc. 9.14495 nM, Biological replicate 1 (2021-10-25)) of the same molecule?
A: 111.853

Q: What about the “(av-uRBC) / (DMSO-uRBC) x100” value (PopD-D7, conc. 9.14495 nM, Biological replicate 2 (2021-11-03)) of the same molecule?
A: 111.153

Q: And the “(av-uRBC) / (DMSO-uRBC) x100” value (PopD-D7, conc. 9.14495 nM, Biological replicate 3 (2021-11-11))?
A: 114.836

Q: And the “(av-uRBC) / (DMSO-uRBC) x100” value (PopD-D7, conc. 27.4348 nM, Biological replicate 1 (2021-10-25))?
A: 111.176

Q: What about the “(av-uRBC) / (DMSO-uRBC) x100” value (PopD-D7, conc. 27.4348 nM, Biological replicate 2 (2021-11-03)) of the same molecule?
A: 111.76

Q: And the “(av-uRBC) / (DMSO-uRBC) x100” value (PopD-D7, conc. 27.4348 nM, Biological replicate 3 (2021-11-11))?
A: 128.575

Q: And the “(av-uRBC) / (DMSO-uRBC) x100” value (PopD-D7, conc. 82.3045 nM, Biological replicate 1 (2021-10-25))?
A: 109.097

Q: And the “(av-uRBC) / (DMSO-uRBC) x100” value (PopD-D7, conc. 82.3045 nM, Biological replicate 2 (2021-11-03))?
A: 114.254

Q: What about the “(av-uRBC) / (DMSO-uRBC) x100” value (PopD-D7, conc. 82.3045 nM, Biological replicate 3 (2021-11-11)) of the same molecule?
A: 124.242

Q: What about the “(av-uRBC) / (DMSO-uRBC) x100” value (PopD-D7, conc. 246.914 nM, Biological replicate 1 (2021-10-25)) of the same molecule?
A: 110.536

Q: What about the “(av-uRBC) / (DMSO-uRBC) x100” value (PopD-D7, conc. 246.914 nM, Biological replicate 2 (2021-11-03)) of the same molecule?
A: 113.933

Q: What about the “(av-uRBC) / (DMSO-uRBC) x100” value (PopD-D7, conc. 246.914 nM, Biological replicate 3 (2021-11-11)) of the same molecule?
A: 129.518

Q: What about the “(av-uRBC) / (DMSO-uRBC) x100” value (PopD-D7, conc. 740.741 nM, Biological replicate 1 (2021-10-25)) of the same molecule?
A: 106.002

Q: What about the “(av-uRBC) / (DMSO-uRBC) x100” value (PopD-D7, conc. 740.741 nM, Biological replicate 2 (2021-11-03)) of the same molecule?
A: 112.781

Q: And the “(av-uRBC) / (DMSO-uRBC) x100” value (PopD-D7, conc. 740.741 nM, Biological replicate 3 (2021-11-11))?
A: 117.002

Q: What about the “(av-uRBC) / (DMSO-uRBC) x100” value (PopD-D7, conc. 2222.22 nM, Biological replicate 1 (2021-10-25)) of the same molecule?
A: 103.716

Q: And the “(av-uRBC) / (DMSO-uRBC) x100” value (PopD-D7, conc. 2222.22 nM, Biological replicate 2 (2021-11-03))?
A: 111.361

Q: What about the “(av-uRBC) / (DMSO-uRBC) x100” value (PopD-D7, conc. 2222.22 nM, Biological replicate 3 (2021-11-11)) of the same molecule?
A: 123.604

Q: What about the “(av-uRBC) / (DMSO-uRBC) x100” value (PopD-D7, conc. 6666.67 nM, Biological replicate 1 (2021-10-25)) of the same molecule?
A: 102.822

Q: What about the “(av-uRBC) / (DMSO-uRBC) x100” value (PopD-D7, conc. 6666.67 nM, Biological replicate 2 (2021-11-03)) of the same molecule?
A: 107.742

Q: And the “(av-uRBC) / (DMSO-uRBC) x100” value (PopD-D7, conc. 6666.67 nM, Biological replicate 3 (2021-11-11))?
A: 113.943

Q: What about the “(av-uRBC) / (DMSO-uRBC) x100” value (PopD-D7, conc. 20000 nM, Biological replicate 1 (2021-10-25)) of the same molecule?
A: 68.9276

Q: What about the “(av-uRBC) / (DMSO-uRBC) x100” value (PopD-D7, conc. 20000 nM, Biological replicate 2 (2021-11-03)) of the same molecule?
A: 85.5559

Q: And the “(av-uRBC) / (DMSO-uRBC) x100” value (PopD-D7, conc. 20000 nM, Biological replicate 3 (2021-11-11))?
A: 59.2149

Q: And the “Fold change compared to 3D7” value?
A: > 117 fold

Q: Which EC50 does the source give for `CC(C)(Oc1ccc(Cl)c(S(=O)(=O)N2CCOCC2)c1)C(=O)Nc1ccc(F)c(Cl)c1` [compound 3] here?
A: 1400 nM

Q: And the “resistance of the line compared with 3D7” value?
A: highly resistant

Q: And the “(av-uRBC) / (DMSO-uRBC) x100” value (PopD-D7, 3.04832 nM, biological replicate 1)?
A: 117.893

Q: What about the “(av-uRBC) / (DMSO-uRBC) x100” value (PopD-D7, 3.04832 nM, biological replicate 2) of the same molecule?
A: 107.059

Q: And the “(av-uRBC) / (DMSO-uRBC) x100” value (PopD-D7, 3.04832 nM, biological replicate 3)?
A: 122.96

Q: What about the “(av-uRBC) / (DMSO-uRBC) x100” value (PopD-D7, 9.14495 nM, biological replicate 1) of the same molecule?
A: 119.508

Q: And the “(av-uRBC) / (DMSO-uRBC) x100” value (PopD-D7, 9.14495 nM, biological replicate 2)?
A: 110.415

Q: And the “(av-uRBC) / (DMSO-uRBC) x100” value (PopD-D7, 9.14495 nM, biological replicate 3)?
A: 124.421

Q: What about the “(av-uRBC) / (DMSO-uRBC) x100” value (PopD-D7, 27.4348 nM, biological replicate 1) of the same molecule?
A: 119.539

Q: What about the “(av-uRBC) / (DMSO-uRBC) x100” value (PopD-D7, 27.4348 nM, biological replicate 2) of the same molecule?
A: 110.363

Q: And the “(av-uRBC) / (DMSO-uRBC) x100” value (PopD-D7, 27.4348 nM, biological replicate 3)?
A: 140.932

Q: What about the “(av-uRBC) / (DMSO-uRBC) x100” value (PopD-D7, 82.3045 nM, biological replicate 1) of the same molecule?
A: 115.279

Q: What about the “(av-uRBC) / (DMSO-uRBC) x100” value (PopD-D7, 82.3045 nM, biological replicate 2) of the same molecule?
A: 110.433

Q: What about the “(av-uRBC) / (DMSO-uRBC) x100” value (PopD-D7, 82.3045 nM, biological replicate 3) of the same molecule?
A: 132.525

Q: And the “(av-uRBC) / (DMSO-uRBC) x100” value (PopD-D7, 246.914 nM, biological replicate 1)?
A: 110.69

Q: And the “(av-uRBC) / (DMSO-uRBC) x100” value (PopD-D7, 246.914 nM, biological replicate 2)?
A: 106.686

Q: And the “(av-uRBC) / (DMSO-uRBC) x100” value (PopD-D7, 246.914 nM, biological replicate 3)?
A: 118.688

Q: And the “(av-uRBC) / (DMSO-uRBC) x100” value (PopD-D7, 740.741 nM, biological replicate 1)?
A: 93.2195

Q: And the “(av-uRBC) / (DMSO-uRBC) x100” value (PopD-D7, 740.741 nM, biological replicate 2)?
A: 100.295

Q: And the “(av-uRBC) / (DMSO-uRBC) x100” value (PopD-D7, 740.741 nM, biological replicate 3)?
A: 70.3418

Q: And the “(av-uRBC) / (DMSO-uRBC) x100” value (PopD-D7, 2222.22 nM, biological replicate 1)?
A: 51.7543

Q: What about the “(av-uRBC) / (DMSO-uRBC) x100” value (PopD-D7, 2222.22 nM, biological replicate 2) of the same molecule?
A: 59.804

Q: What about the “(av-uRBC) / (DMSO-uRBC) x100” value (PopD-D7, 2222.22 nM, biological replicate 3) of the same molecule?
A: 18.6053

Q: And the “(av-uRBC) / (DMSO-uRBC) x100” value (PopD-D7, 6666.67 nM, biological replicate 1)?
A: 13.8697

Q: What about the “(av-uRBC) / (DMSO-uRBC) x100” value (PopD-D7, 6666.67 nM, biological replicate 2) of the same molecule?
A: 12.8436

Q: And the “(av-uRBC) / (DMSO-uRBC) x100” value (PopD-D7, 6666.67 nM, biological replicate 3)?
A: 12.5413

Q: And the “(av-uRBC) / (DMSO-uRBC) x100” value (PopD-D7, 20000 nM, biological replicate 1)?
A: 8.262

Q: And the “(av-uRBC) / (DMSO-uRBC) x100” value (PopD-D7, 20000 nM, biological replicate 2)?
A: 6.955

Q: And the “(av-uRBC) / (DMSO-uRBC) x100” value (PopD-D7, 20000 nM, biological replicate 3)?
A: 7.3043

Q: And the “Fold change compared to 3D7” value?
A: 88 fold
